# Measured values taken from US20080058318A1 (priority 2006, published 2008).
# Several values for one entry are separate records, joined by “and”; a condition that tells them apart may be missing. Equal values may be shown once. Where a name gives a salt, the structure may show the parent alone.
# Experiments:
# fibromyalgia patients [1] = conditions: cited from earlier work
# [2] = system: patients who met the 1990 ACR criteria for fibromyalgia syndrome; experiment: Example 1 study: composite responder analysis for pain of fibromyalgia (pain reduction plus PGIC); format: in vivo, human; conditions: for Responders for the treatment of the pain of fibromyalgia, % = m/n: observed cases (OC), hydrochloride; for Responders for the treatment of the pain of fibromyalgia, m (number of responders): observed cases
# Description: (§1) This was a multi-center, randomized, double-blinded, placebo-controlled three-arm study, which enrolled 888 patients who met the 1990 ACR criteria for fibromyalgia syndrome as well as the more detailed admission criteria outlined in the protocol.
# (§2) All randomized medications (placebo and milnacipran) were administered in a split-dose (BID) fashion. The doses were administered in a dose escalation regimen as outlined below:
# The primary endpoint of this study was a composite responder analysis implementing analysis of three domains of interest, evaluated at […]. The domains measured were:
# 1) pain (measured by an electronic diary as a daily recall pain score, calculated to weekly average scores)
# 2) patient global (measured by the PGIC, 1-7 scale)
# For the primary analysis, the pain domain score was determined by a calculation that compared the average of treatment weeks 14 and 15 to the two baseline weeks, and treatment weeks 26 and 27 vs. baseline for the secondary analysis. The last observation was carried forward if neither the week 14 nor week 15 (or week 26/27) patient self-reported pain score is available to compare to the baseline value.
# A responder was defined as a subject who experienced a greater than 30% reduction in pain from baseline and improvement on the PGIC.
# See Table 1 for a summary of the results in the Intent-to-Treat Population and Table 2 for a summary of the Last Observation Carried Forward (LOCF), Baseline Observation Carried Forward (BOCF) and study completer (OC) populations. LOCF is an analysis in which observations are carried forward to the last time point for patients who dropped out. The LOCF analysis treats the carried-forward data as observed data at the last time point. BOCF is an analysis that requires that the patient remain active in the trial to be evaluated for response. If a patient withdraws from the trial for any reason they are classed as a non-responder irregardless of their pain and global scores at the time of withdrawal.
# [3] = system: patients who meet the 1990 ACR criteria for fibromyalgia syndrome; experiment: Example 2 study: MASQ total score, 3-month treatment period; format: in vivo, human; set-up: MASQ total score, Actual, Mean / MASQ total score, Change from baseline, Mean / MASQ total score, Actual, Median / MASQ total score, Change from baseline, Median: scale not given here; conditions: for MASQ total score change, Difference from Placebo / MASQ total score, Change from baseline, LS Mean (SE): 3-month (LOCF), ITT, ANCOVA model; for MASQ total score, Actual, Mean / MASQ total score, Actual, Median / MASQ total score, Change from baseline, Mean / MASQ total score, Change from baseline, Median: 3-month treatment period (LOCF), intent-to-treat
# Description: This was a multicenter, randomized, double-blind, placebo-controlled three-arm study designed which enrolled 1196 patients who meet the 1990 ACR criteria for fibromyalgia syndrome (history of widespread pain and pain in 11 of 18 tender point sites on digital palpation), as well as the more detailed admission criteria outlined in the protocol.
# All randomized medications (placebo and milnacipran) were administered twice a day (BID).
# (iii) Additional Efficacy Measurements: The Fibromyalgia Impact Questionnaire (FIQ) total score and physical function, Beck Depression Inventory (BDI), the MOS-Sleep Index Scale, the Arizona Sexual Experiences Scale (ASEX), Patient pain 24 hour and 7 day recall VAS, the SF-36 individual domains, Patient Global Disease Status, Patient Global Therapeutic Benefit, the Multiple Ability Self-report Questionnaire (MASQ, cognitive function), the Multidimensional Health Assessment Questionnaire (MDHAQ), Multidimensional Fatigue Inventory (MFI), and diary assessments including current pain (morning, random daily, and evening reports); overall pain past week (weekly report), overall fatigue in the last week (weekly report), and the extent that pain kept the patient from caring for themselves (weekly report).
# [4] = system: patients who met the 1990 ACR criteria for fibromyalgia syndrome; experiment: Example 1 study: MASQ total score (cognitive function), change from baseline; format: in vivo, human; set-up: MASQ Total Score - Change from Baseline: scale not given here
# Description: as §1, §2
# d. FMS Status Assessments: Patient pain 24 hour and 7 day recall VAS, the SF-36, Multiple Ability Self-report Questionnaire (MAS Q, cognitive function), the Multidimensional Health Assessment Questionnaire (MDHAQ) and the Multidimensional Fatigue Inventory (MFI). Diary assessments include current pain (morning, random daily, and evening reports); daily recall pain (morning report); medications taken (evening report); overall pain past week (weekly report), overall fatigue in the last week (weekly report), and the extent that pain kept the patient from caring for themselves (weekly report).
# The MASQ is a brief self-report questionnaire, which includes 5 cognitive domains: language ability, visuo-perceptual ability, verbal memory, visual memory, and attention/concentration (Seidenberg et al., J Clin & Exp Neuropsychology 1994; 16:93-104). The MASQ has been validated in both normal subjects and patient groups having cognitive difficulties in the assessment domains.
# fibromyalgia patients [5] = conditions: cited from earlier work; remark: listed apart in the source
# [6] = system: subjects suffering from fibromyalgia syndrome; conditions: cited from earlier work; for Subjects with significant clinical improvement: after one month; for Difference between treatment group and placebo: at three months
# patients with FMS = conditions: open-label, cited from earlier work
smiles,measurement,setting,value
"CCN(CC)C(=O)C1(c2ccccc2)CC1CN (racemic) [milnacipran, Z-2-aminomethyl-1-phenyl-N,N-diethylcyclopropanecarboxamide hydrochloride]",Deaths or serious adverse events associated with treatment,fibromyalgia patients [1]; Phase II study,no deaths or serious adverse events
same,Patients with adverse events from elevation in hepatic enzymes,fibromyalgia patients [1]; milnacipran-treated patients,2%
same,"Responders for the treatment of the pain of fibromyalgia, % = m/n","[2]; 100 mg/day BID, treatment weeks 14-15 (3 month)",53.33% and 53.3%
same,"Responders for the treatment of the pain of fibromyalgia, % = m/n","[2]; 100 mg/day BID, treatment weeks 14-15 (3 month), listed as Milnacipran",53.33%
same,"Responders for the treatment of the pain of fibromyalgia, % = m/n","[2]; 100 mg/day BID, treatment weeks 26-27 (6 month)",49.59% and 49.6%
same,"Responders for the treatment of the pain of fibromyalgia, % = m/n","[2]; 100 mg/day BID, treatment weeks 26-27 (6 month), listed as Milnacipran",49.59%
same,"Long-term treatment of fibromyalgia and some of its symptoms, low dose compared with high dose","[2]; 100 mg/day vs 200 mg/day, continued administration",almost as effective as continued administration of high-dose milnacipran
same,"Responders for the treatment of the pain of fibromyalgia, m (number of responders)","[2]; 100 mg/day, treatment weeks 14-15, n = 135",72
same,"Responders for the treatment of the pain of fibromyalgia, m (number of responders)","[2]; 100 mg/day, treatment weeks 26-27, n = 121",60
same,"Individual component responder rate, PGIC (LOCF)","[2]; 100 mg, 3 month",54.0%
same,"Individual component responder rate, Pain (LOCF)","[2]; 100 mg, 3 month",35.7%
same,"Pain composite responder rate, Sensitivity Analysis I (BOCF)","[2]; 100 mg, 3 month",32.1%
same,"Pain composite responder rate, Sensitivity Analysis II","[2]; 100 mg, 3 month",32.%
same,"Pain composite responder rate, Sensitivity Analysis III","[2]; 100 mg, 3 month",32.1%
same,"Pain composite responder rate, Primary Analysis (LOCF)","[2]; 100 mg, 3 month, N = 224",33.5%
same,"Individual component responder rate, PGIC (LOCF)","[2]; 100 mg, 6 month",49.6%
same,"Individual component responder rate, Pain (LOCF)","[2]; 100 mg, 6 month",35.7%
same,"Pain composite responder rate, Sensitivity Analysis I (BOCF)","[2]; 100 mg, 6 month",26.8%
same,"Pain composite responder rate, Sensitivity Analysis II","[2]; 100 mg, 6 month",27.2%
same,"Pain composite responder rate, Sensitivity Analysis III","[2]; 100 mg, 6 month",29.5%
same,"Pain composite responder rate, Primary Analysis (LOCF)","[2]; 100 mg, 6 month, N = 224",30.8%
same,"Responders for the treatment of the pain of fibromyalgia, % = m/n","[2]; 200 mg/day BID, treatment weeks 14-15 (3 month)",55.0%
same,"Responders for the treatment of the pain of fibromyalgia, % = m/n","[2]; 200 mg/day BID, treatment weeks 14-15 (3 month), listed as Milnacipran",55.00%
same,"Responders for the treatment of the pain of fibromyalgia, % = m/n","[2]; 200 mg/day BID, treatment weeks 26-27 (6 month)",51.74% and 51.7%
same,"Responders for the treatment of the pain of fibromyalgia, % = m/n","[2]; 200 mg/day BID, treatment weeks 26-27 (6 month), listed as Milnacipran",51.74%
same,"Responders for the treatment of the pain of fibromyalgia, m (number of responders)","[2]; 200 mg/day, treatment weeks 14-15, n = 260",143
same,"Responders for the treatment of the pain of fibromyalgia, m (number of responders)","[2]; 200 mg/day, treatment weeks 26-27, n = 230",119
same,"Individual component responder rate, PGIC (LOCF)","[2]; 200 mg, 3 month",50.6%
same,"Individual component responder rate, Pain (LOCF)","[2]; 200 mg, 3 month",38.3%
same,"Pain composite responder rate, Sensitivity Analysis I (BOCF)","[2]; 200 mg, 3 month",32.4%
same,"Pain composite responder rate, Sensitivity Analysis II","[2]; 200 mg, 3 month",32.7%
same,"Pain composite responder rate, Sensitivity Analysis III","[2]; 200 mg, 3 month",32.4%
same,"Pain composite responder rate, Primary Analysis (LOCF)","[2]; 200 mg, 3 month, N = 441",34.9%
same,"Individual component responder rate, PGIC (LOCF)","[2]; 200 mg, 6 month",49.9%
same,"Individual component responder rate, Pain (LOCF)","[2]; 200 mg, 6 month",35.4%
same,"Pain composite responder rate, Sensitivity Analysis I (BOCF)","[2]; 200 mg, 6 month",27.0%
same,"Pain composite responder rate, Sensitivity Analysis II","[2]; 200 mg, 6 month",28.6%
same,"Pain composite responder rate, Sensitivity Analysis III","[2]; 200 mg, 6 month",29.9%
same,"Pain composite responder rate, Primary Analysis (LOCF)","[2]; 200 mg, 6 month, N = 441",32.2%
same,"MASQ total score change, Difference from Placebo",[3]; 100 mg,−1.13
same,"MASQ total score, Change from baseline, LS Mean (SE)",[3]; 100 mg,−3.93 (0.786)
same,"MASQ total score, Actual, Mean",[3]; 100 mg,88.86
same,"MASQ total score, Actual, Median",[3]; 100 mg,89.0
same,"MASQ total score, Change from baseline, Mean",[3]; 100 mg,−3.34
same,"MASQ total score, Change from baseline, Median",[3]; 100 mg,−3.0
same,"MASQ total score change, Difference from Placebo",[3]; 200 mg,−1.12
same,"MASQ total score, Change from baseline, LS Mean (SE)",[3]; 200 mg,−4.51 (0.797)
same,"MASQ total score, Actual, Mean",[3]; 200 mg,89.63
same,"MASQ total score, Actual, Median",[3]; 200 mg,90.5
same,"MASQ total score, Change from baseline, Mean",[3]; 200 mg,−3.75
same,"MASQ total score, Change from baseline, Median",[3]; 200 mg,−3.0
same,"Treatment of cognitive dysfunction associated with FMS (change in MASQ total score), comparison with placebo",[4]; 100 mg/day vs placebo,superior to placebo
same,MASQ Total Score - Change from Baseline,"[4]; 100 mg, treatment week 3",−0.39
same,MASQ Total Score - Change from Baseline,"[4]; 100 mg, treatment week 7",−0.34
same,MASQ Total Score - Change from Baseline,"[4]; 100 mg, treatment week 11",−1.33
same,MASQ Total Score - Change from Baseline,"[4]; 100 mg, treatment week 15",−1.18
same,MASQ Total Score - Change from Baseline,"[4]; 100 mg, treatment week 19",−1.60
same,MASQ Total Score - Change from Baseline,"[4]; 100 mg, treatment week 23",−0.89
same,MASQ Total Score - Change from Baseline,"[4]; 100 mg, treatment week 27",−1.07
same,"Treatment of cognitive dysfunction associated with FMS (change in MASQ total score), 200 mg/day compared with 100 mg/day",[4]; 200 mg/day vs 100 mg/day,superior to milnacipran 100 mg/day
same,"Treatment of cognitive dysfunction associated with FMS (change in MASQ total score), comparison with placebo",[4]; 200 mg/day vs placebo,superior to placebo
same,MASQ Total Score - Change from Baseline,"[4]; 200 mg, treatment week 3",−1.60
same,MASQ Total Score - Change from Baseline,"[4]; 200 mg, treatment week 7",−1.77
same,MASQ Total Score - Change from Baseline,"[4]; 200 mg, treatment week 11",−1.73
same,MASQ Total Score - Change from Baseline,"[4]; 200 mg, treatment week 15",−1.76
same,MASQ Total Score - Change from Baseline,"[4]; 200 mg, treatment week 19",−1.63
same,MASQ Total Score - Change from Baseline,"[4]; 200 mg, treatment week 23",−1.52
same,MASQ Total Score - Change from Baseline,"[4]; 200 mg, treatment week 27",−1.89
same,Acute (short-term) therapy for the symptom of pain in FMS,fibromyalgia patients [5]; 100 mg BID,effective acute (short-term) therapy
same,"Effect on fatigue, mood, global wellness, and function, BID compared with QD dosing","fibromyalgia patients [5]; BID vs QD, up to 200 mg/day",approximately equally effective
same,"Treating pain, twice-daily dosing compared with QD dosing","fibromyalgia patients [5]; BID vs QD, up to 200 mg/day",more effective in treating pain than QD dosing
same,PGIC: completers who reported an improvement in their overall status,"fibromyalgia patients [5]; both milnacipran treatment groups (BID and QD), up to 200 mg/day",over 70%
same,PGIC: completers who reported worsening,"fibromyalgia patients [5]; milnacipran treatment groups, up to 200 mg/day",10%
CN(C)CCC=C1c2ccccc2CCc2ccccc21 [amitriptyline],Subjects with significant clinical improvement,[6],21%
same,Difference between treatment group and placebo,[6],no difference
CN(C)CCC=C1c2ccccc2C=Cc2ccccc21 [cyclobenzaprine],Subjects with significant clinical improvement,[6],12%
same,Difference between treatment group and placebo,[6],no difference
COc1ccc(C(CN(C)C)C2(O)CCCCC2)cc1 (stereo not shown) [venlafaxine],Completing patients with insomnia requiring adjunctive medical therapy,patients with FMS; 11 completing patients,3 of 11
same,Completing patients with a positive response (50% or greater improvement in two measurements of overall pain),"patients with FMS; 15 patients, 11 completing",Six of 11
